Data: patent US10253052B2, “HBED-bisphosphonates, radiometal conjugates and their use as theranostic agents” (Five Eleven Pharma Inc., priority 2015, dated 2019)

Experiments:
[1] = In vivo biodistribution in mice; set-up: species or system normal CD-1 male mice; settings: iv
Procedure: Biodistribution experiments were performed by intravenously administering ^68Ga labeled 1a-h, 2, 3, BPAMD, and [^18F]NaF into normal, healthy male CD-1 mice (25-30 g). The injection activity was 20-30 μCi/animal. […] Organs of interest were harvested, weighed, and counts of radioactivity were measured by a gamma counter. The biodistribution of each sample was calculated as a percentage of the injected dose per gram of wet tissue weight (% ID/g). Tibia and femur bones were harvested and counted as bone samples.

[2] = In vitro binding to hydroxyapatite; settings: 20 mg hydroxyapatite in saline, 10 min at room temperature
Procedure: Hydroxyapatite (20 mg, Sigma-Aldrich, reagent grade powder) was incubated in isotonic saline (1 mL) for 24 h. Subsequently, either ^68Ga labeled 1a-h, 2, 3, BPAMD, or [^18F]NaF (1 μCi) was added to the hydroxyapatite suspension. After vortexing for 10 seconds, the suspension was incubated for 10 min at room temperature. The samples were then centrifuged at 10,000 rpm for 3 min and the supernatant was removed. The hydroxyapatite fraction was washed twice with saline (1 mL). Radioactivity in the combined supernatants and the hydroxyapatite fraction was measured using a gamma counter. The proportion of the ^68Ga complex binding to hydroxyapatite was determined as percent of ^68Ga absorbed to hydroxyapatite.

## O=C([O-])CN(CCN(CC(=O)[O-])Cc1cc(CCC(=O)NC(P(=O)(O)O)P(=O)(O)O)ccc1[O-])Cc1cc(CCC(=O)NC2C(O)OC(CO)C(O)C2O)ccc1[O-].[68Ga+3] (stereo not shown) [[^68Ga]1b]
[1]; 2 min
  bone to blood ratio: 0.9
  bone to muscle ratio: 4.7
[1]; 2 min post injection
  Biodistribution: Blood: 9.22 ± 0.83 % dose/g
  Biodistribution: Bone: 8.34 ± 0.88 % dose/g
  Biodistribution: Brain: 0.20 ± 0.04 % dose/g
  Biodistribution: Heart: 3.01 ± 0.23 % dose/g
  Biodistribution: Kidney: 18.5 ± 2.45 % dose/g
  Biodistribution: Liver: 2.58 ± 0.22 % dose/g
  Biodistribution: Lung: 5.11 ± 0.28 % dose/g
  Biodistribution: Muscle: 1.79 ± 0.28 % dose/g
  Biodistribution: Pancreas: 1.51 ± 0.06 % dose/g
  Biodistribution: Skin: 2.55 ± 0.58 % dose/g
  Biodistribution: Spleen: 2.03 ± 0.13 % dose/g
[1]; 30 min
  bone to blood ratio: 20
  bone to muscle ratio: 68
[1]; 30 min (0.5 hr) post injection
  Biodistribution: Blood: 0.83 ± 0.04 % dose/g
  Biodistribution: Bone: 16.6 ± 1.37 % dose/g
  Biodistribution: Brain: 0.03 ± 0.01 % dose/g
  Biodistribution: Heart: 0.62 ± 0.04 % dose/g
  Biodistribution: Kidney: 3.21 ± 1.59 % dose/g
  Biodistribution: Liver: 1.20 ± 0.10 % dose/g
  Biodistribution: Lung: 1.31 ± 0.29 % dose/g
  Biodistribution: Muscle: 0.24 ± 0.03 % dose/g
  Biodistribution: Pancreas: 0.24 ± 0.02 % dose/g
  Biodistribution: Skin: 0.60 ± 0.02 % dose/g
  Biodistribution: Spleen: 0.75 ± 0.22 % dose/g
[1]; 60 min
  bone to blood ratio: 50
  bone to muscle ratio: 147
[1]; 60 min (1 hr) post injection
  Biodistribution: Blood: 0.39 ± 0.06 % dose/g
  Biodistribution: Bone: 19.4 ± 2.05 % dose/g
  Biodistribution: Brain: 0.02 ± 0.01 % dose/g
  Biodistribution: Heart: 0.37 ± 0.02 % dose/g
  Biodistribution: Kidney: 2.65 ± 0.44 % dose/g
  Biodistribution: Liver: 1.15 ± 0.13 % dose/g
  Biodistribution: Lung: 0.96 ± 0.05 % dose/g
  Biodistribution: Muscle: 0.13 ± 0.01 % dose/g
  Biodistribution: Pancreas: 0.11 ± 0.01 % dose/g
  Biodistribution: Skin: 0.26 ± 0.04 % dose/g
  Biodistribution: Spleen: 0.66 ± 0.15 % dose/g
[1]; 120 min
  bone to blood ratio: 82
  bone to muscle ratio: 197
[1]; 120 min post injection
  Biodistribution: Blood: 0.21 ± 0.06 % dose/g
  Biodistribution: Bone: 17.1 ± 3.70 % dose/g
  Biodistribution: Brain: 0.02 ± 0.01 % dose/g
  Biodistribution: Heart: 0.28 ± 0.04 % dose/g
  Biodistribution: Kidney: 2.71 ± 0.17 % dose/g
  Biodistribution: Liver: 1.22 ± 0.07 % dose/g
  Biodistribution: Lung: 0.86 ± 0.03 % dose/g
  Biodistribution: Muscle: 0.09 ± 0.01 % dose/g
  Biodistribution: Pancreas: 0.08 ± 0.01 % dose/g
  Biodistribution: Skin: 0.18 ± 0.01 % dose/g
  Biodistribution: Spleen: 0.53 ± 0.04 % dose/g
[2]
  Hydroxyapatite Binding (%): 91.7 ± 5.6%

## O=C([O-])CN(CCN(CC(=O)[O-])Cc1cc(CCC(=O)N[C@@H](CCC(=O)O)C(=O)O)ccc1[O-])Cc1cc(CCC(=O)NC(P(=O)(O)O)P(=O)(O)O)ccc1[O-].[68Ga+3] [[^68Ga]1f]
[1]; 2 min
  bone to blood ratio: 1
  bone to muscle ratio: 4
[1]; 2 min post injection
  Biodistribution: Blood: 8.98 ± 0.68 % dose/g
  Biodistribution: Bone: 8.62 ± 0.23 % dose/g
  Biodistribution: Brain: 0.22 ± 0.00 % dose/g
  Biodistribution: Heart: 3.53 ± 0.57 % dose/g
  Biodistribution: Kidney: 24.7 ± 3.13 % dose/g
  Biodistribution: Liver: 2.43 ± 0.27 % dose/g
  Biodistribution: Lung: 5.01 ± 0.81 % dose/g
  Biodistribution: Muscle: 2.10 ± 0.12 % dose/g
  Biodistribution: Pancreas: 1.96 ± 0.15 % dose/g
  Biodistribution: Skin: 2.62 ± 0.11 % dose/g
  Biodistribution: Spleen: 2.20 ± 0.26 % dose/g
[1]; 30 min
  bone to blood ratio: 33
  bone to muscle ratio: 74
[1]; 30 min (0.5 hr) post injection
  Biodistribution: Blood: 0.52 ± 0.05 % dose/g
  Biodistribution: Bone: 16.8 ± 1.66 % dose/g
  Biodistribution: Brain: 0.02 ± 0.00 % dose/g
  Biodistribution: Heart: 0.23 ± 0.01 % dose/g
  Biodistribution: Kidney: 2.05 ± 0.52 % dose/g
  Biodistribution: Liver: 0.28 ± 0.02 % dose/g
  Biodistribution: Lung: 0.42 ± 0.03 % dose/g
  Biodistribution: Muscle: 0.23 ± 0.01 % dose/g
  Biodistribution: Pancreas: 0.15 ± 0.01 % dose/g
  Biodistribution: Skin: 0.49 ± 0.04 % dose/g
  Biodistribution: Spleen: 0.22 ± 0.03 % dose/g
[1]; 60 min
  bone to blood ratio: 78
  bone to muscle ratio: 222
[1]; 60 min (1 hr) post injection
  Biodistribution: Blood: 0.18 ± 0.04 % dose/g
  Biodistribution: Bone: 14.4 ± 3.01 % dose/g
  Biodistribution: Brain: 0.01 ± 0.00 % dose/g
  Biodistribution: Heart: 0.11 ± 0.01 % dose/g
  Biodistribution: Kidney: 1.59 ± 0.72 % dose/g
  Biodistribution: Liver: 0.20 ± 0.02 % dose/g
  Biodistribution: Lung: 0.21 ± 0.01 % dose/g
  Biodistribution: Muscle: 0.06 ± 0.00 % dose/g
  Biodistribution: Pancreas: 0.08 ± 0.02 % dose/g
  Biodistribution: Skin: 0.15 ± 0.01 % dose/g
  Biodistribution: Spleen: 0.12 ± 0.04 % dose/g
[1]; 120 min
  bone to blood ratio: 180
  bone to muscle ratio: 374
[1]; 120 min post injection
  Biodistribution: Blood: 0.09 ± 0.01 % dose/g
  Biodistribution: Bone: 16.7 ± 1.12 % dose/g
  Biodistribution: Brain: 0.01 ± 0.01 % dose/g
  Biodistribution: Heart: 0.07 ± 0.01 % dose/g
  Biodistribution: Kidney: 1.08 ± 0.20 % dose/g
  Biodistribution: Liver: 0.19 ± 0.01 % dose/g
  Biodistribution: Lung: 0.13 ± 0.01 % dose/g
  Biodistribution: Muscle: 0.04 ± 0.01 % dose/g
  Biodistribution: Pancreas: 0.04 ± 0.00 % dose/g
  Biodistribution: Skin: 0.09 ± 0.01 % dose/g
  Biodistribution: Spleen: 0.08 ± 0.01 % dose/g
[2]
  Hydroxyapatite Binding (%): 96.4 ± 1.2%
